Like-named read-outs stand apart in the source and are kept apart here.
Key:
Assay type in all cases: cell-based, human
[1] = test system: DMS114; assay: OncoPanel cell proliferation assay, DMS114; conditions: for Relative cell count (%) Mean: DMS114
Method: (§1) Cells were seeded into 384-well plates and incubated in a humidified atmosphere of 5% CO2 at 37° C. Compounds were added the day following cell seeding. At the same time, a time zero untreated cell plate was generated. After a 3-day incubation period, cells were fixed and stained to allow fluorescence imaging of nuclei. Compounds (1 mM stock solutions) were serially diluted in half-log steps from the highest test concentration ([…]), and assayed over 10 concentrations with a maximum assay concentration of 0.1% DMSO. Automated fluorescence microscopy was carried out using a Molecular Devices ImageXpress Micro XL high-content imager, and images were collected with a 4× objective. 16-bit TIFF images were acquired and analyzed with MetaXpress 5.1.0.41 software.
(§2) Cell proliferation was measured by the fluorescence intensity of an incorporated nuclear dye. The output is referred to as the relative cell count, where the measured nuclear intensity is transformed to percent of control (POC) using the following formula: […]
(§3) Cellular response parameters were calculated using nonlinear regression to a sigmoidal single-site dose response model:
(§4) Where y is a response measured at concentration x, A and B are the lower and upper limits of the response, C is the concentration at the response midpoint (EC50), and D is the Hill Slope (Ref. 1).
GI50 is the concentration needed to reduce the observed growth by half (midway between the curve maximum and the time zero value). […] In rare instances, values <0 or >10 may be observed. […] Curve-fitting, calculations, and report generation was performed using a custom data reduction engine and MathIQ based software (AIM).

[2] = test system: SCaBER; assay: OncoPanel cell proliferation assay, SCaBER
Method: as §1, with “Cells were grown in RPMI 1640, 10% FBS, 2 mM L-alanyl-L-glutamine, 1 mM Na pyruvate, or a special medium. Cells” for “Cells”
as §2, §3, §4
(§5) EC50 is the test compound concentration at the curve inflection point or half the effective response (parameter C of the fitted curve solution). GI50 is the concentration needed to reduce the observed growth by half (midway between the curve maximum and the time zero value). “Cell Count Activity Area” is an estimate of the integrated area above the curve (Barretina, et al. The Cancer Cell Line Encyclopedia enables predictive modelling of anticancer drug sensitivity. Nature 483: 603-607). […] In rare instances, values <0 or >10 may be observed. […] Curve-fitting, calculations, and report generation was performed using a custom data reduction engine and MathIQ based software (AIM).

[3] = test system: Hs 852.T; assay: OncoPanel cell proliferation assay, Hs 852.T
Method: as §1, with “Cells were grown in RPMI 1640, 10% FBS, 2 mM L-alanyl-L-glutamine, 1 mM Na pyruvate, or a special medium. Cells” for “Cells”
as §2, §3, §4, §5

[4] = test system: SNU-C2B; assay: OncoPanel cell proliferation assay, SNU-C2B
Method: as §1, with “Cells were grown in RPMI 1640, 10% FBS, 2 mM L-alanyl-L-glutamine, 1 mM Na pyruvate, or a special medium. Cells” for “Cells”
as §2, §3, §4, §5

[5] = test system: AGS; assay: OncoPanel cell proliferation assay, AGS
Method: as §1, with “Cells were grown in RPMI 1640, 10% FBS, 2 mM L-alanyl-L-glutamine, 1 mM Na pyruvate, or a special medium. Cells” for “Cells”
as §2, §3, §4, §5

[6] = test system: NCIH446; assay: OncoPanel cell proliferation assay, NCIH446; conditions: for Relative cell count (%) Mean: NCIH446
Method: as §1, with “Cells were grown in RPMI 1640, 10% FBS, 2 mM L-alanyl-L-glutamine, 1 mM Na pyruvate, or a special medium. Cells” for “Cells”
as §2, §3, §4, §5

[7] = Homo sapiens, 72 h, 3-day incubation, read-out: Cell Count EC50
[8] = Homo sapiens, 72 h, 3-day incubation, read-out: Cell Count GI50
[9] = Homo sapiens, 72 h, 3-day incubation, read-out: Cell Count IC50

CO[C@H]1C[C@@H]2CC[C@@H](C)[C@@](O)(O2)C(=O)C(=O)N2CCCC[C@H]2C(=O)O[C@H]([C@H](C)C[C@@H]2C[C@@H]3C[C@H]2C[C@H]3O)CC(=O)[C@H](C)/C=C(\C)[C@@H](O)[C@@H](OC)C(=O)[C@H](C)C[C@H](C)/C=C/C=C/C=C/1C [Formula I, 37R-hydroxynorbornylrapamycin]
Cell Count Activity Area ([1]; DMS114, scale 0-10): 4.35 | Relative cell count (%) Mean ([1]; 1.00E+00 microM): 39.3% | Relative cell count (%) Mean ([1]; 1.00E−01 microM): 44.1% | Relative cell count (%) Mean ([1]; 1.00E−02 microM): 50.7% | Relative cell count (%) Mean ([1]; 1.00E−03 microM): 57.7% | Relative cell count (%) Mean ([1]; 1.01E−04 microM): 77.8% | Relative cell count (%) Mean ([1]; 3.16E−01 microM): 41.4% | Relative cell count (%) Mean ([1]; 3.17E−02 microM): 44.7% | Relative cell count (%) Mean ([1]; 3.17E−03 microM): 51.7% | Relative cell count (%) Mean ([1]; 3.18E−04 microM): 67.2% | Relative cell count (%) Mean ([1]; 3.18E−05 microM): 90.1% | EC50 ([1]; Homo sapiens, DMS-114, 72 h, DMS114, 3-day incubation, read-out: Cell Count EC50): 0.251 nM | GI50 ([1]; Homo sapiens, DMS-114, 72 h, DMS114, 3-day incubation, read-out: Cell Count GI50): 0.0822 nM | IC50 ([1]; Homo sapiens, DMS-114, 72 h, DMS114, 3-day incubation, read-out: Cell Count IC50): 4.4 nM | Relative cell count (%) Mean ([2]; 1.00E+00 microM): 32.4% | Relative cell count (%) Mean ([2]; 1.00E−01 microM): 36.9% | Relative cell count (%) Mean ([2]; 1.00E−02 microM): 35.4% | Relative cell count (%) Mean ([2]; 1.00E−03 microM): 44.7% | Relative cell count (%) Mean ([2]; 1.01E−04 microM): 61.7% | Relative cell count (%) Mean ([2]; 3.16E−01 microM): 33.0% | Relative cell count (%) Mean ([2]; 3.17E−02 microM): 34.0% | Relative cell count (%) Mean ([2]; 3.17E−03 microM): 38.7% | Relative cell count (%) Mean ([2]; 3.18E−04 microM): 55.4% | Relative cell count (%) Mean ([2]; 3.18E−05 microM): 81.9% | EC50 [2, 7]: 0.0947 nM | GI50 [2, 8]: 0.262 nM | IC50 [2, 9]: 0.451 nM | EC50 ([2]; Homo sapiens, Table 4 summary, Bladder, read-out: EC50): 0.095 nM | Cell Count Activity Area ([2]; scale 0-10): 5.46 | Relative cell count (%) Mean ([3]; 1.00E+00 microM): 67.7% | Relative cell count (%) Mean ([3]; 1.00E−01 microM): 82.5% | Relative cell count (%) Mean ([3]; 1.00E−02 microM): 92.9% | Relative cell count (%) Mean ([3]; 1.00E−03 microM): 96.5% | Relative cell count (%) Mean ([3]; 1.01E−04 microM): 106.1% | Relative cell count (%) Mean ([3]; 3.16E−01 microM): 78.0% | Relative cell count (%) Mean ([3]; 3.17E−02 microM): 87.7% | Relative cell count (%) Mean ([3]; 3.17E−03 microM): 100.5% | Relative cell count (%) Mean ([3]; 3.18E−04 microM): 105.1% | Relative cell count (%) Mean ([3]; 3.18E−05 microM): 99.0% | EC50 [3, 7]: 335 nM | GI50 [3, 8]: 803 nM | IC50 [3, 9]: > 1000 nM | Cell Count Activity Area ([3]; scale 0-10): 1.22 | Relative cell count (%) Mean ([4]; 1.00E+00 microM): 58.7% | Relative cell count (%) Mean ([4]; 1.00E−01 microM): 65.6% | Relative cell count (%) Mean ([4]; 1.00E−02 microM): 68.6% | Relative cell count (%) Mean ([4]; 1.00E−03 microM): 73.7% | Relative cell count (%) Mean ([4]; 1.01E−04 microM): 89.1% | Relative cell count (%) Mean ([4]; 3.16E−01 microM): 55.1% | Relative cell count (%) Mean ([4]; 3.17E−02 microM): 63.2% | Relative cell count (%) Mean ([4]; 3.17E−03 microM): 71.6% | Relative cell count (%) Mean ([4]; 3.18E−04 microM): 79.6% | Relative cell count (%) Mean ([4]; 3.18E−05 microM): 83.2% | EC50 [4, 7]: 2.07 nM | GI50 [4, 8]: 24.1 nM | IC50 [4, 9]: > 1000 nM | Cell Count Activity Area ([4]; scale 0-10): 2.30 | Relative cell count (%) Mean ([5]; 1.00E+00 microM): 32.3% | Relative cell count (%) Mean ([5]; 1.00E−01 microM): 39.3% | Relative cell count (%) Mean ([5]; 1.00E−02 microM): 39.1% | Relative cell count (%) Mean ([5]; 1.00E−03 microM): 39.8% | Relative cell count (%) Mean ([5]; 1.01E−04 microM): 58.2% | Relative cell count (%) Mean ([5]; 3.16E−01 microM): 38.3% | Relative cell count (%) Mean ([5]; 3.17E−02 microM): 34.7% | Relative cell count (%) Mean ([5]; 3.17E−03 microM): 40.1% | Relative cell count (%) Mean ([5]; 3.18E−04 microM): 45.6% | Relative cell count (%) Mean ([5]; 3.18E−05 microM): 82.7% | EC50 [5, 7]: 0.0635 nM | GI50 [5, 8]: 0.136 nM | IC50 [5, 9]: 0.186 nM | Cell Count Activity Area ([5]; scale 0-10): 5.50 | EC50 ([6]; Homo sapiens, NCI-H446, 72 h, NCIH446, 3-day incubation, read-out: Cell Count EC50): 1.37 nM | GI50 ([6]; Homo sapiens, NCI-H446, 72 h, NCIH446, 3-day incubation, read-out: Cell Count GI50): 75.5 nM | IC50 ([6]; Homo sapiens, NCI-H446, 72 h, NCIH446, 3-day incubation, read-out: Cell Count IC50): > 1000 nM | Cell Count Activity Area ([6]; NCIH446, scale 0-10): 1.96 | Relative cell count (%) Mean ([6]; 1.00E+00 microM): 69.7% | Relative cell count (%) Mean ([6]; 1.00E−01 microM): 77.0% | Relative cell count (%) Mean ([6]; 1.00E−02 microM): 75.9% | Relative cell count (%) Mean ([6]; 1.00E−03 microM): 88.1% | Relative cell count (%) Mean ([6]; 1.01E−04 microM): 102.8% | Relative cell count (%) Mean ([6]; 3.16E−01 microM): 71.2% | Relative cell count (%) Mean ([6]; 3.17E−02 microM): 85.0% | Relative cell count (%) Mean ([6]; 3.17E−03 microM): 82.3% | Relative cell count (%) Mean ([6]; 3.18E−04 microM): 100.1% | Relative cell count (%) Mean ([6]; 3.18E−05 microM): 99.4%

— patent US20210024542A1 (Torcept Therapeutics, Inc., priority 2018, published 2021)
